± gives the expanded uncertainty stated by the source.
Test: xn = mol fraction of the nth substance listed
Conditions: 101 kPa, Liquid; for viscosity: Concentric cylinders viscometry; for speed of sound: Pulse-echo method; for mass density: Vibrating tube method

CCCCCCCO [heptan-1-ol] + C1COCCO1
Conditions	mass density, 313.15 K [kg/m3]	mass density, 318.15 K [kg/m3]	mass density, 323.15 K [kg/m3]	speed of sound, 313.15 K [m/s]	speed of sound, 318.15 K [m/s]	speed of sound, 323.15 K [m/s]	viscosity, 313.15 K [mPa·s]	viscosity, 318.15 K [mPa·s]	viscosity, 323.15 K [mPa·s]
x1 = 0.0505	992.162 ± 0.27	986.663 ± 0.27	981.158 ± 0.27	1275.6 ± 1.2	1254.7 ± 1.2	1233.5 ± 1.2	0.957 ± 0.033	0.888 ± 0.031	0.827 ± 0.029
x1 = 0.1	975.379 ± 0.26	970.046 ± 0.26	964.707 ± 0.26	1270.9 ± 1.2	1250.5 ± 1.2	1230.6 ± 1.2	0.976 ± 0.034	0.905 ± 0.032	0.842 ± 0.03
x1 = 0.1501	960.33 ± 0.26	955.144 ± 0.26	949.953 ± 0.26	1267.6 ± 1.2	1247.5 ± 1.2	1228.1 ± 1.2	1.009 ± 0.035	0.934 ± 0.033	0.867 ± 0.03
x1 = 0.2	946.025 ± 0.26	940.982 ± 0.26	935.93 ± 0.26	1264.9 ± 1.2	1245.2 ± 1.2	1226.2 ± 1.2	1.041 ± 0.036	0.964 ± 0.034	0.893 ± 0.031
x1 = 0.25	932.425 ± 0.25	927.545 ± 0.25	922.628 ± 0.25	1262.8 ± 1.2	1243.5 ± 1.2	1224.8 ± 1.2	1.088 ± 0.038	1.003 ± 0.035	0.928 ± 0.032
x1 = 0.2997	920.079 ± 0.25	915.295 ± 0.25	910.503 ± 0.25	1261.3 ± 1.2	1242.4 ± 1.2	1224 ± 1.2	1.143 ± 0.04	1.052 ± 0.037	0.971 ± 0.034
x1 = 0.3502	908.677 ± 0.25	904.009 ± 0.25	899.329 ± 0.25	1260.6 ± 1.2	1242 ± 1.2	1223.9 ± 1.2	1.209 ± 0.042	1.109 ± 0.039	1.021 ± 0.036
x1 = 0.4001	898.054 ± 0.24	893.497 ± 0.24	888.925 ± 0.24	1260 ± 1.2	1241.6 ± 1.2	1223.7 ± 1.2	1.278 ± 0.045	1.168 ± 0.041	1.073 ± 0.037
x1 = 0.4498	888.028 ± 0.24	883.572 ± 0.24	879.103 ± 0.24	1259.9 ± 1.2	1241.7 ± 1.2	1224.1 ± 1.2	1.361 ± 0.047	1.241 ± 0.043	1.136 ± 0.04
x1 = 0.4998	878.663 ± 0.24	874.304 ± 0.24	869.929 ± 0.24	1260.3 ± 1.2	1242.3 ± 1.2	1224.9 ± 1.2	1.463 ± 0.051	1.33 ± 0.046	1.213 ± 0.042
x1 = 0.55	870.001 ± 0.24	865.728 ± 0.24	861.446 ± 0.24	1260.7 ± 1.2	1243 ± 1.2	1225.7 ± 1.2	1.568 ± 0.054	1.419 ± 0.049	1.29 ± 0.045
x1 = 0.6004	861.838 ± 0.24	857.642 ± 0.24	853.441 ± 0.24	1262.1 ± 1.2	1244.1 ± 1.2	1227 ± 1.2	1.691 ± 0.059	1.526 ± 0.053	1.383 ± 0.048
x1 = 0.6501	854.006 ± 0.24	849.902 ± 0.24	845.785 ± 0.24	1262.9 ± 1.2	1245.5 ± 1.2	1228.6 ± 1.2	1.83 ± 0.064	1.645 ± 0.057	1.486 ± 0.052
x1 = 0.7002	846.648 ± 0.24	842.622 ± 0.24	838.579 ± 0.24	1264.3 ± 1.2	1247 ± 1.2	1230.3 ± 1.2	1.991 ± 0.069	1.783 ± 0.062	1.604 ± 0.056
x1 = 0.7493	839.512 ± 0.24	835.561 ± 0.24	831.593 ± 0.24	1266 ± 1.2	1248.9 ± 1.2	1232.4 ± 1.2	2.165 ± 0.075	1.93 ± 0.067	1.73 ± 0.06
x1 = 0.7999	832.79 ± 0.24	828.821 ± 0.24	824.83 ± 0.24	1267.4 ± 1.2	1250.6 ± 1.2	1234.3 ± 1.2	2.38 ± 0.082	2.114 ± 0.073	1.883 ± 0.065
x1 = 0.85	826.48 ± 0.24	822.668 ± 0.24	818.738 ± 0.24	1270.6 ± 1.2	1253.3 ± 1.2	1236.9 ± 1.2	2.62 ± 0.091	2.313 ± 0.08	2.053 ± 0.071
x1 = 0.8998	820.289 ± 0.24	816.551 ± 0.24	812.671 ± 0.24	1272.2 ± 1.2	1255.8 ± 1.2	1239.1 ± 1.2	2.913 ± 0.1	2.557 ± 0.089	2.258 ± 0.078
x1 = 0.9498	814.421 ± 0.24	810.743 ± 0.24	807.031 ± 0.24	1274.6 ± 1.2	1258.4 ± 1.2	1241.8 ± 1.2	3.25 ± 0.11	2.835 ± 0.098	2.489 ± 0.086
x1 = 1	809.011 ± 0.23	805.383 ± 0.24	801.731 ± 0.24	1277.7 ± 1.2	1261.1 ± 1.2	1245.1 ± 1.2	3.677 ± 0.13	3.186 ± 0.11	2.777 ± 0.096
